Paper PMC12114947, “Evaluation of Violacein Metabolic Stability and Metabolite Identification in Human, Mouse, and Rat Liver Microsomes” (Pharmaceutics, 2025)

Key:
Caco-2 cells = test system: Caco-2 cells; set-up: method as in PMID 16889929; conditions: cited from earlier work
parasitemia = test system: parasitemia; set-up: method as in PMID 19273690; conditions: C57BL/6 mice, three consecutive days, 3.75 mg/kg/day; cited from earlier work
[1] = In vitro metabolic stability in mouse liver microsomes; format: in vitro ADME
Procedure: After removal, a pool consisting of livers from five naïve male rats and five C57BL male mice was immediately placed in a 50 mM Tris-HCl buffer, pH 7.4, containing 150 mM KCl. The livers were diced with scissors and washed three times with buffer, followed by homogenization with 20 mL of buffer in a Potter-type homogenizer (three cycles, with each cycle comprising three grindings of 1 min each at 1000 rpm). The homogenate was centrifuged at 10,000× g for 15 min at 4 °C. The resulting supernatant was then ultracentrifuged at 100,000× g for 60 min at 4 °C to obtain the microsomal pellet, which was resuspended in 50 mM HEPES-HCl buffer, pH 7.4, containing 20% glycerol and 1 mM EDTA.
The metabolic stability of volacein was assessed as described by Godoi et al. and Antunes et al.. Aliquots (4 µL) of 100 µM violacein working solution and 96 µL of the NADPH-regenerating system, containing 1.1 mM NADP^+, 10 mM glucose-6-phosphate, 1 U/mL glucose-6-phosphate dehydrogenase, 5 mM sodium citrate, and 66 mM magnesium chloride in 100 mM phosphate buffer, pH 7.4, were transferred to propylene tubes and pre-incubated for 5 min in an MTC 100 thermo shaker incubator (Miulab, Zhejiang, China) at 300 rpm and 37 °C. Subsequently, the metabolic reactions were initiated by adding 100 μL of microsomal proteins from HLMs, RLMs, and MLMs at a concentration of 2 mg/mL to the pre-incubated shaking tubes, resulting in final concentrations of 2 μM for violacein and 1 mg/mL for microsomal proteins. In this experiment, seven incubation times were planned for each species (0, 3, 5, 15, 30, 60, and 120 min), in triplicate. At each time interval, the reactions were stopped by adding 400 μL of ice-cold acetonitrile spiked with 10 µM omeprazole (IS) to each tube. Finally, the samples were vortexed for 5 min in a BenchMixer^TM XL (Benchmark, NJ, USA) and centrifuged at 12,000× g for 15 min at 4 °C (Hettich® Universal 320 R, Tuttlingen, Germany). The supernatants were transferred to a 96-well plate and 8 μL was injected into the LC-MS/MS system (see Section 2.3).
All incubations were performed simultaneously with positive and negative controls. The positive controls were prepared by incubating dapaconazole at the same conditions as violacein (final concentrations: 2 μM) and its metabolic stability was compared with previous studies. Similarly, the negative controls were prepared by incubating violacein in buffer solution, in the absence of microsome and cofactor solutions.
Violacein was analyzed using LC-MS/MS (LC-QQQ MS, LCMS8045, Shimadzu, Kyoto, Japan). Chromatographic separation was achieved on a Raptor^TM Biphenyl column (2.1 × 100 mm, 2.7 μm) at 40 °C. The mobile phases consisted of water (mobile phase A) and methanol (mobile phase B), both containing 2 mM ammonium formate and 0.1% (v/v) formic acid. A flow rate of 0.3 mL/min was used with an elution gradient starting at 20% mobile phase B and holding for 0.2 min, followed by a linear increase to 95% mobile phase B over 2 min that was then maintained for 1 min, with a return to the initial condition in 0.2 min. The total chromatographic run time was 5 min.
In vitro t1/2 was calculated using to the following equation [60, 61]:(1) t1/2=ln(2)/k where k is the slope of the log-linear regression graph of the percentage of drug remaining as a function of time.
CLint, in vitro was calculated using to the following equation [60, 61]:(2) CLint, in vitro=0.693/t1/2×Vincubation/mmicrosomes where Vincubation indicates the volume of the incubation in μL and mmicrosomes indicates the mass of microsomal proteins added to the incubation solution in mg. […]

## O=C1NC(c2c[nH]c3ccc(O)cc23)=C/C1=C1\C(=O)Nc2ccccc21 [violacein]
Caco-2 cells
  IC50: ~2000 nM
parasitemia
  Reduction in parasitemia: 82%
[1]; MLMs
  CLint, in vitro: 17.01 µL/min/mg
[1]; MLMs, time 0 min
  Ln Z: 4.605
  Z (%), remaining percentage of violacein: 100%
[1]; MLMs, time 3 min
  Ln Z: 4.490
  Z (%), remaining percentage of violacein: 89%
[1]; MLMs, time 5 min
  Ln Z: 4.379
  Z (%), remaining percentage of violacein: 80%
[1]; MLMs, time 15 min
  Ln Z: 4.244
  Z (%), remaining percentage of violacein: 70%
[1]; MLMs, time 30 min
  Ln Z: 4.022
  Z (%), remaining percentage of violacein: 56%
[1]; MLMs, time 60 min
  Ln Z: 3.715
  Z (%), remaining percentage of violacein: 41%
[1]; MLMs, time 120 min
  Ln Z: 3.385
[1]; MLMs, ln remaining % vs incubation time
  Slope (k), metabolism rate constant: y = −0.0085x + 4.3405 r^2 = 0.9554 Slope (k) = 0.0085
[1]; male, C57BL, mouse, mouse liver microsomes, pH 7.4, MLMs
  microsomal CLint at 2 µM: 17 µL/min/mg
[1]; male, C57BL, mouse, mouse liver microsomes, pH 7.4, mouse, extrapolated from CLint, in vitro by allometric scaling, read-out: CLint, in vivo
  CLint scaled at 2 µM: 67 mL/min/kg
[1]; male, C57BL, mouse, mouse liver microsomes, pH 7.4, MLMs, 2 μM violacein, 1 mg/mL microsomal protein, NADPH-regenerating system, 37 °C, n = 3, read-out: In vitro elimination half-life (t1/2)
  half-life at 2 µM: 1.35 h
[1]; mouse, extrapolated from CLint, in vitro by allometric scaling
  CLint, in vivo: 66.99 mL/min/kg
